The text below walks through data of ChEMBL document CHEMBL4673251, “Fluorinated 2-Arylcyclopropan-1-amines - A new class of sigma receptor ligands” (Bioorg Med Chem, 2020).

In data set [1] the target is T1, Sigma intracellular receptor 2 (Rattus norvegicus) (UniProt Q5U3Y7).
T1 sequence (whole entry): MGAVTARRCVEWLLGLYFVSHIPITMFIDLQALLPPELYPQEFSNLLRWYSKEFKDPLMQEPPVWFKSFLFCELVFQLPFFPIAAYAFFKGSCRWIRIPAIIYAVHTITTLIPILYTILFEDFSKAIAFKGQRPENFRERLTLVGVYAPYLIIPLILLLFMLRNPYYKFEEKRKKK
The data set is described as follows: Displacement of [3H]-di-o-tolylguanidine from Sigma 2 receptor in rat liver membrane at 1 uM incubated for 120 mins by solid scintillation counting method. In kind it is cell membranes. Particulars: Cell membrane. On the technique in general: In a radioligand displacement assay an active substance lowers the binding of a labelled ligand.

The target in data set [2] is T2, Sigma non-opioid intracellular receptor 1 (Cavia porcellus, UniProt Q60492). The data set is described as follows: Displacement of [3H]-(+)-pentazocine from sigma1 receptor in guinea pig brain membrane incubated for 120 mins by solid scintillation counting method. The data set is classed as cell membranes, Cell membrane.
T2 sequence (Q60492 whole entry): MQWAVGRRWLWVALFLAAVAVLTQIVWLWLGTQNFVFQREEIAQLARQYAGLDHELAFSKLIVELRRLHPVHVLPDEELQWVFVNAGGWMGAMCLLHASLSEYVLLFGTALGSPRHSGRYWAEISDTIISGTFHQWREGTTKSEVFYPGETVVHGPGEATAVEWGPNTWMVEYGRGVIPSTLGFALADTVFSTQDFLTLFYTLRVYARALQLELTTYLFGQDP
A further data set is filed under the species Sus scrofa. The experiment in a line: Displacement of [3H]-(+)-MK-801 from PCP binding site of NMDA receptor in pig brain cortex membranes after 120 mins by solid scintillation counting method. Particulars: Cell membrane.
Data set [3] concerns the target Sigma non-opioid intracellular receptor 1 (Cavia porcellus) (UniProt Q60492). The experiment in a line: Displacement of [3H]-(+)-pentazocine from sigma1 receptor in guinea pig brain membrane at 1 uM incubated for 120 mins by solid scintillation counting method. The data set is classed as cell membranes. Particulars: Cell membrane.
Data set [4] deals with T3, Sigma intracellular receptor 2 (Rattus norvegicus, UniProt Q5U3Y7).
T3 sequence (Q5U3Y7 whole entry): T1 sequence (whole entry)
The data set is described as follows: Displacement of [3H]-di-o-tolylguanidine from Sigma 2 receptor in rat liver membrane incubated for 120 mins by solid scintillation counting method. The data set is classed as cell membranes, Cell membrane.

The nature of data set [5]: Dissociation constant, pKa of the compound. In kind it is physicochemical.
In data set [6] the target is T2, Sigma non-opioid intracellular receptor 1. The data set is described as follows: Displacement of [3H]-pentazocine from sigma1 receptor in guinea pig brain membrane incubated for 150 mins by scintillation counting method. The data set is classed as cell membranes, Cell membrane.
A short description of data set [7]: Displacement of [3H]-di-o-tolylguanidine from Sigma 2 receptor in guinea pig brain membrane incubated for 120 mins by scintillation counting method. The data set is classed as cell membranes, Cavia porcellus, Cell membrane.

Calls of active or inactive are those of the source. The rule behind the calls is not given here.

Chain of Sigma non-opioid intracellular receptor 1 (Cavia porcellus) (Q60492 whole entry): as above

Turning to `NCC1CC1(F)c1ccccc1` (stereo not given), the inhibition (in general, the percentage by which the read-out fell short of the control) in data set [1] was 24%. For the same molecule, the Ki (in general, the dissociation constant of the complex between target and ligand, obtained from inhibition or displacement) in data set [2] amounted to 429 nM. For the same molecule, in the data set filed under Sus scrofa, the result was inactive.

On to `COc1ccc(C2(F)CC2N)cc1OC` (stereo not given), for which, in the data set listed under Sus scrofa, the result was inactive. Moreover, in data set [3], the inhibition amounted to 24%. Moreover, the Ki in data set [4] was 3100 nM.

Consider `FC1(c2ccccc2)CC1NCc1ccccc1` (stereo not given), for which the inhibition in data set [1] and in data set [3] was 0% in each case. Besides, the result in the data set filed under Sus scrofa was inactive.

On to `NCCC1CC1(F)c1ccccc1` (stereo not given), for which the inhibition came out at 5% in data set [1] and 24% in data set [3]. In the data set filed under Sus scrofa, the outcome was inactive.

Regarding `NC1CC1(F)c1ccc(Cl)cc1` (cis isomer), the Ki in data set [2] amounted to 1500 nM; in data set [4], 2000 nM. In addition, the result in the data set listed under Sus scrofa was inactive.

In the case of `COc1cccc(C2(F)CC2N)c1.Cl` (cis isomer), the pKa (in general, the negative logarithm of the acid dissociation constant) in data set [5] amounted to 6.89.

Regarding `Cc1ccc(C2(F)CC2N)cc1` (cis isomer), the result in the data set filed under Sus scrofa was inactive. In data set [3], this molecule gave an inhibition of 25%. This molecule also gave a Ki in data set [4] of 3100 nM.

Turning to `COc1cccc(C2(F)CC2N)c1` (cis isomer), the outcome in the data set filed under Sus scrofa was inactive. Further, in data set [3], the inhibition was determined as 14%.

Take `NC1CC1(F)c1ccc(S(F)(F)(F)(F)F)cc1` (cis isomer): in the data set listed under Sus scrofa, the outcome was inactive. The inhibition in data set [3] amounted to 17%.

For the molecule `NC1CC1(F)c1cccc([N+](=O)[O-])c1` (cis isomer), the inhibition came out at 49% in data set [1] and 13% in data set [3]. Besides, the result in the data set filed under Sus scrofa was inactive.

As for `NC1CC1(F)c1ccccc1` (cis isomer), the inhibition was 23% in data set [1] and 30% in data set [3]. The result in the data set listed under Sus scrofa was inactive.

Take `CNC1CC1(F)c1ccccc1` (racemic): the inhibition in data set [1] amounted to 19%; in data set [3] it was 0%. Further, the outcome in the data set listed under Sus scrofa was inactive.

In the case of `N[C@@H]1C[C@H]1c1ccccc1.N[C@H]1C[C@@H]1c1ccccc1` (racemic) [TRANYLCYPROMINE], the Ki is 1800 nM in data set [2] and 6200 nM in data set [4].

For the molecule `COC(=O)C1(c2ccccc2)CC1CNC12CC3CC(CC(C3)C1)C2` (racemic; cis), the Ki turned out to be 3 nM in data set [6] and 23 nM in data set [7].

Regarding `COC(=O)C1(c2ccccc2)CC1CNC12CC3CC(CC(C3)C1)C2` (racemic; trans), the Ki came to 226 nM in data set [6] and 135 nM in data set [7].

With `CNC1CC1(F)c1ccccc1` (stereo in doubt; 11a), the inhibition in data set [1] and in data set [3] was 0% in each case. The result in the data set filed under Sus scrofa was inactive.

For `NC1CC1(F)c1ccc(F)cc1` (stereo in doubt; 17b) [listing 1 of 2 here], the Ki in data set [2] is 428 nM; in data set [4], 2400 nM.

On to `NC1CC1(F)c1ccc(F)cc1` (stereo in doubt; 17b) [listing 2 of 2 here], for which, in the data set listed under Sus scrofa, the result was inactive.

Take `COc1ccc(C2(F)CC2N)cc1` (stereo in doubt; 19b) [listing 1 of 2 here]: the Ki in data set [2] was found to be 366 nM.

Turning to `COc1ccc(C2(F)CC2N)cc1` (stereo in doubt; 19b) [listing 2 of 2 here], in data set [1], the inhibition was 33%. The result in the data set listed under Sus scrofa was inactive.

With `NC1CC1(F)c1ccc(C(F)(F)F)cc1` (stereo in doubt; 20b) [listing 1 of 2 here], the Ki in data set [2] amounted to 13 nM; in data set [4], 95 nM. Moreover, the pKa in data set [5] (read-out: pKa) amounted to 7.

`NC1CC1(F)c1ccc(C(F)(F)F)cc1` (stereo in doubt; 20b) [listing 2 of 2 here]: the result in the data set listed under Sus scrofa was inactive.

For `NC1(c2ccccc2)CC1(F)c1ccccc1` (stereo in doubt; 24b) [listing 1 of 2 here], the Ki in data set [2] came out at 527 nM; in data set [4], 7100 nM.

Consider `NC1(c2ccccc2)CC1(F)c1ccccc1` (stereo in doubt; 24b) [listing 2 of 2 here], for which, in the data set filed under Sus scrofa, the outcome was inactive.

`NC1CC1(F)c1ccc([N+](=O)[O-])cc1` (stereo in doubt; 25b): the inhibition came to 53% in data set [1] and 1% in data set [3]. The result in the data set listed under Sus scrofa was inactive.

As for `NC1CC1(F)c1cccc(F)c1` (stereo in doubt; 27b), the inhibition in data set [1] came out at 16%; in data set [3] it was 0%. Moreover, the result in the data set filed under Sus scrofa was inactive.

As to `NC1CC1(F)c1ccc(F)cc1` (trans isomer) [listing 1 of 2 here], in data set [4], the Ki was 1200 nM. This counts as single-digit micromolar.

`NC1CC1(F)c1ccc(C(F)(F)F)cc1` (trans isomer) [listing 1 of 2 here]: the Ki came out at 1900 nM in data set [2] and 911 nM in data set [4].

With `COc1cccc(C2(F)CC2N)c1` (trans isomer) [listing 1 of 2 here], the pKa in data set [5] (read-out: pKa) was 6.63.

Take `NC1(c2ccccc2)CC1(F)c1ccccc1` (trans isomer) [listing 1 of 2 here]: the Ki is 399 nM in data set [2] and 2300 nM in data set [4].

Turning to `COc1ccc(C2(F)CC2N)cc1` (trans isomer) [listing 1 of 2 here], the Ki in data set [2] was determined as 4.8 nM. Also, the pKa in data set [5] (read-out: pKa) amounted to 7.5.

Regarding `NC1CC1(F)c1ccc(S(F)(F)(F)(F)F)cc1` (trans isomer) [listing 1 of 2 here], the affinity in data set [2] corresponds to a Ki of 660 nM.

The molecule `COc1ccc(C2(F)CC2N)cc1` (trans isomer) [listing 2 of 2 here] returned an inhibition in data set [1] of 32%. Besides, the outcome in the data set listed under Sus scrofa was inactive.

In the case of `COc1cccc(C2(F)CC2N)c1` (trans isomer) [listing 2 of 2 here], the result in the data set listed under Sus scrofa was inactive. The molecule also registered an inhibition in data set [3] of 25%.

Regarding `Fc1cccc(C2(F)CC2NCc2ccccc2)c1` (trans isomer), the inhibition in data set [1] and in data set [3] was 0% in each case. For the same molecule, the outcome in the data set listed under Sus scrofa was inactive.

For the molecule `NC1(c2ccccc2)CC1(F)c1ccccc1` (trans isomer) [listing 2 of 2 here], the outcome in the data set listed under Sus scrofa was inactive.

Consider `NC1CC1(F)c1ccc(C(F)(F)F)cc1` (trans isomer) [listing 2 of 2 here], for which the result in the data set filed under Sus scrofa was inactive.

With `NC1CC1(F)c1ccc(F)cc1` (trans isomer) [listing 2 of 2 here], in the data set listed under Sus scrofa, the outcome was inactive. Moreover, the inhibition in data set [3] worked out at 27%.

Consider `NC1CC1(F)c1ccc(S(F)(F)(F)(F)F)cc1` (trans isomer) [listing 2 of 2 here], for which the outcome in the data set listed under Sus scrofa was inactive.

`NC1CC1(F)c1ccc([N+](=O)[O-])cc1` (trans isomer): the inhibition in data set [1] turned out to be 0%; in data set [3] it was 13%. The outcome in the data set filed under Sus scrofa was inactive.

As to `NC1CC1(F)c1cccc(F)c1` (trans isomer), the inhibition in data set [1] came to 31%; in data set [3], 0%. For the same molecule, the result in the data set listed under Sus scrofa was inactive.

`NC1CC1(F)c1cccc([N+](=O)[O-])c1` (trans isomer): the inhibition was 18% in data set [1] and 16% in data set [3]. For the same molecule, in the data set listed under Sus scrofa, the outcome was inactive.
